Laboratory results: PubChem BioAssay AID588680 (Southern Research Specialized Biocontainment Screening …, 2011)
Activity calls are given as the source filed them.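 Rule for the calls: active = inhibition of 30% or more at any tested concentration; inactive = the rest.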

Molecular target: M1-family alanyl aminopeptidase (PfM1AAP), Plasmodium falciparum 3D7
Assay: malaria M1 alanyl aminopeptidase inhibitors – biochemical, QFRET, H-Leu-NHMec substrate, selectivity assay for PfM18AAP inhibitor project, dose response (AID 588680)
Details: recombinant PfM1AAP, H-Leu-NHMec fluorogenic cleavage

IC50, active:
Nc1cc(C(=O)c2ccccc2)ccc1O 40.3 µM
O=C1OCCN1CCc1nc(-c2ccc(O)c(O)c2)cs1 37.7 µM
Oc1ccc(CCNc2ccc3ccccc3c2)cc1O 34.6 µM
Oc1ccc(CCNc2c3c(nc4ccccc24)CCCC3)cc1O 35 µM
Cc1c(-c2ccccc2)[nH]c(-c2ccc(O)c(O)c2)[n+]1O 54.3 µM
CN(CCc1ccc(O)c(O)c1)c1ccncc1 45.2 µM
Oc1ccc(CCNC(c2ccccc2)c2ccccc2)cc1O 55.1 µM
O=C1c2ccc3c4c(ccc(c24)C(=O)N1O)CC3 76.7 µM
CCC(C)c1ccc(N)c(O)c1 (stereo not drawn) 42.2 µM
Oc1ccc(-c2csc(Cc3cc4ccccc4[nH]3)n2)cc1O 19.9 µM
Cc1ccc(-c2nc(-c3ccc(O)c(O)c3)cs2)cc1 37.1 µM
Oc1ccc(CCN2CCc3ccccc3C2)cc1O 77 µM
CN(CCc1ccc(O)c(O)c1)c1ccnc2ccccc12 19.7 µM
CC(C)(C)C(=O)OCc1nc(-c2ccc(O)c(O)c2)cs1 41.2 µM
O=c1ccc2cc(O)c(O)cc2o1 48.2 µM
O=c1cc(CN2CCN(Cc3ccccc3)CC2)c2ccc(O)c(O)c2o1 90.5 µM
O=S1(=O)c2ccccc2-c2cc(-c3nc(-c4ccc(O)c(O)c4)[nH]c3-c3ccccc3)ccc21 39.9 µM
Oc1ccc(CCNc2cncc3ccccc23)cc1O 35.7 µM
CCOc1cccc(-c2nc(-c3ccc(O)c(O)c3)cs2)c1 40 µM
Oc1ccc(CCNc2cccc3ccccc23)cc1O 29.9 µM
Cc1nc(NCCc2ccc(O)c(O)c2)c2c3c(sc2n1)CCC3 40 µM

Same assay, conditions: recombinant PfM1AAP, H-Leu-NHMec fluorogenic cleavage; at 50 µM (top of the series)

inhibition, inactive:
O=C(O)CCCNc1c2ccccc2nc2ccccc12
O=C(O)CCCCNc1c2ccccc2nc2ccccc12

Same assay, conditions: recombinant PfM1AAP, H-Leu-NHMec fluorogenic cleavage; at 100 µM (top of the series)

inhibition, inactive:
NCCNc1c2ccccc2nc2ccccc12
O=C(c1ccco1)N1CCN(Cc2cc(=O)c(O)c[nH]2)CC1
COc1ccc(CC(=O)O)cc1OC
Cc1c(OCc2ccccc2)c(=O)ccn1CCNc1c2ccccc2nc2ccccc12
COc1ccc(CCN2CCN(C)CC2)cc1OC
COc1ccc(CCNc2c3c(nc4ccccc24)CCCC3)cc1OC
COc1ccc(CCNc2ccc3ccccc3c2)cc1OC
COc1ccc(CCNC2CCN(Cc3ccccc3)CC2)cc1OC
COc1ccc(CCN(C)c2ccnc3ccccc23)cc1OC
COc1ccc(-c2nc(-c3ccccc3)c(-c3ccccc3)[nH]2)cc1OC
COc1ccc(CCC(=O)O)cc1OC
COc1ccc(CCN2CCc3ccccc3C2)cc1OC
COc1ccc(CCNc2c3ccccc3nc3ccccc23)cc1OC
COc1ccc(CCNC2CCN(C)CC2)cc1OC
COc1ccc(CCN(C)c2ccncc2)cc1OC
COc1ccc(CCNc2ccncc2)cc1OC
O=c1ccn(CCNc2c3ccccc3nc3ccccc23)cc1OCc1ccccc1
COc1ccc(CCNc2cccc3ccccc23)cc1OC
COc1ccc(CCCNc2c3ccccc3nc3ccccc23)cc1OC
O=c1cc(CO)oc(CN2CCCCC2)c1O
COc1cccc(CCNc2c3ccccc3nc3ccccc23)c1
COc1ccc(-c2csc(-c3ccccc3)n2)cc1OC
Oc1ccc(CNc2c3ccccc3nc3ccccc23)cc1O
COc1ccc(-c2csc(-c3ccccc3OC)n2)cc1OC
COc1ccc(CCNc2c3ccccc3nc3ccccc23)cc1
O=C(c1ccco1)N1CCN(Cc2cc(=O)c(O)co2)CC1
Cc1c(O)c(=O)ccn1CCNc1c2ccccc2nc2ccccc12
COc1cccc(-c2nc(-c3ccc(OC)c(OC)c3)cs2)c1
CCC(C)C(=O)Nc1ccccc1N (stereo not drawn)
Oc1ccc(CCNc2c3ccccc3nc3ccccc23)cc1
CCC(C)C(=O)Nc1ccccc1O (stereo not drawn)
COc1ccc(CNc2c3ccccc3nc3ccccc23)cc1OC
COc1ccc(CCN(C)c2c3ccccc3nc3ccccc23)cc1OC
COc1ccc(CCNc2ccnc3ccccc23)cc1OC
COc1ccc(CCN(C)CCc2ccccc2)cc1OC
